From ChEMBL document CHEMBL5233259, “Medicinal chemistry strategies for the development of protein tyrosine phosphatase SHP2 inhibitors and PROTAC degraders” (Eur J Med Chem, 2020) come the findings set out here.

Test [1] concerns the target T1, Tyrosine-protein phosphatase non-receptor type 6 (Homo sapiens, UniProt P29350).
Description: Inhibition of recombinant GST-fused human SHP1 (205 to 597 residues) using DiFMUP as substrate incubated for 30 mins by fluorescence based assay
Test [2] deals with T2, Tyrosine-protein phosphatase non-receptor type 1 (Homo sapiens, UniProt P18031).
T2 sequence (P18031 whole entry): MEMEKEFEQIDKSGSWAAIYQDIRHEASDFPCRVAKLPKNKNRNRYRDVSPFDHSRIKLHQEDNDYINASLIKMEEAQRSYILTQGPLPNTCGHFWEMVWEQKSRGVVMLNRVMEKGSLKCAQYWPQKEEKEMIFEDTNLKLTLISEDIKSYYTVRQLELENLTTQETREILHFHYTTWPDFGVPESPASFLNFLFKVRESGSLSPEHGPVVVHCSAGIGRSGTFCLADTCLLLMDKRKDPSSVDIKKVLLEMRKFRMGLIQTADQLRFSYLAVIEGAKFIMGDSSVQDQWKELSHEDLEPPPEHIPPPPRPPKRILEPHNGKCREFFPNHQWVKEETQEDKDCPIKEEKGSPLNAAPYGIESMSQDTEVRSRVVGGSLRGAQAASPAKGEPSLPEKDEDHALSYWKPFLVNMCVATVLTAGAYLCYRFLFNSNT
Description: Inhibition of recombinant GST-fused human PTP1B (1 to 435 residues) using DiFMUP as substrate incubated for 30 mins by fluorescence based assay.

For test [3], the target named is T3, Tyrosine-protein phosphatase non-receptor type 11 (Homo sapiens, UniProt Q06124).
T3 sequence (Q06124 whole entry): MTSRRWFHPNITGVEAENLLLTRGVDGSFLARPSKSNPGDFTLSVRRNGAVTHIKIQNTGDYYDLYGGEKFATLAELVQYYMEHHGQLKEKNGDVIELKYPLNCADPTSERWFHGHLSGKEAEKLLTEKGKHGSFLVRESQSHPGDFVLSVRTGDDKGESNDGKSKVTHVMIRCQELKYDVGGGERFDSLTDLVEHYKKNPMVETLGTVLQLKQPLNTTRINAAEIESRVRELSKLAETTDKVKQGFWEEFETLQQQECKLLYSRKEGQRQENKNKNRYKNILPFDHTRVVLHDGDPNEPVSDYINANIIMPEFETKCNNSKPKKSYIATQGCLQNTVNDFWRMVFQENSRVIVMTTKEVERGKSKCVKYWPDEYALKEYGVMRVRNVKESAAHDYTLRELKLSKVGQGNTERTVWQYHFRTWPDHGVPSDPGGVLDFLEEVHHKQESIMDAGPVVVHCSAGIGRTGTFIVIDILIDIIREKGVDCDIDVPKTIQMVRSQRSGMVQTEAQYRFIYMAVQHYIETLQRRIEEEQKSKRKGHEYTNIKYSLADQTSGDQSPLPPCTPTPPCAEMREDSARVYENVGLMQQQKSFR
Briefly: Inhibition of SHP2 ( 1 to 525 residues) (unknown origin).

Test [4] deals with T3, Tyrosine-protein phosphatase non-receptor type 11.
Description: Inhibition of SHP2 (unknown origin)
Test [5] has as its target T1, Tyrosine-protein phosphatase non-receptor type 6. Briefly: Inhibition of SHP1 (unknown origin).
The target of test [6] is T2, Tyrosine-protein phosphatase non-receptor type 1. Description: Inhibition of PTP1B (unknown origin).

Structures are written as SMILES.

T1 sequence (P29350 whole entry): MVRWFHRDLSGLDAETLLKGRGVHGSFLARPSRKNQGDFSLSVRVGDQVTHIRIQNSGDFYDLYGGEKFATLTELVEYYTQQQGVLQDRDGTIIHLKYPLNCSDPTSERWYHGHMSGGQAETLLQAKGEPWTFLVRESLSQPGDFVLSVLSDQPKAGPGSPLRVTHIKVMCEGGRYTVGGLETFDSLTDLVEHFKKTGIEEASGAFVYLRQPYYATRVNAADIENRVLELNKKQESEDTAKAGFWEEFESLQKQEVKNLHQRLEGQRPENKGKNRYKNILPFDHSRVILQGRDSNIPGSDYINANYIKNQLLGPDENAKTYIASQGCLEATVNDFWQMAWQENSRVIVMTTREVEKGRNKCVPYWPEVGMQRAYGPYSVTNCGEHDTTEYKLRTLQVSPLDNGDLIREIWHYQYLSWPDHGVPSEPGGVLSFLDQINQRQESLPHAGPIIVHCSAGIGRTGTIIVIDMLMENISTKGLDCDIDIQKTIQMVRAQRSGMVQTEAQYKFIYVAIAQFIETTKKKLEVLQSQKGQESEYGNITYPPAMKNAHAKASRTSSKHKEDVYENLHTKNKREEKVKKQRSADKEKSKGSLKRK

For `O=S(=O)(O)c1ccc2cc(/N=N/c3cc(S(=O)(=O)O)c4cccnc4c3O)ccc2c1`, the concentration for half-maximal inhibition (IC50) (in general, the concentration that gives 50% inhibition) in test [1] came to 0.355 µM; in test [2], 1.69 µM.

`COc1cccc(-c2nnc3n(Cc4ccccc4Cl)c(=O)c4ccccc4n23)c1O` had an IC50 in test [3] of 60 µM.

In test [4], `O=C1Nc2ccc(S(=O)(=O)O)cc2/C1=N/Nc1ccccc1[N+](=O)[O-]` displayed an IC50 of 0.8 µM.

Turning to `O=C1/C(=N\Nc2ccc(S(=O)(=O)O)cc2)C(c2ccc([N+](=O)[O-])cc2)=NN1c1ccccc1`, the values for the IC50 in test [5] and in test [6] were 30 µM and 19 µM, respectively.
